In publication PMC7313537 (PLoS ONE, 2020):

Columns and labels:
[1] = target: CLK3 (Homo sapiens, UniProt P49761); assay: Enzyme selectivity panel; assay type: biochemical; conditions: 1 mM ATP
Protocol: (§1) The kinase assays were carried out at room temperature in HEPES 50 mM, pH 7.0, NaN3 0.02%, BSA 0.01%, Orthovanadate 0.1 mM, DTT 1 mM, MgCl2 10 mM in a final volume of 10 µL. Test compounds were transferred to the plate wells by ECHO liquid handler (Labcyte, San Jose, CA) with 0.5% dimethyl sulfoxide (DMSO) in the final assay. Peptide/kinase mixtures were diluted in the appropriate enzymatic buffer and 5µL of the mixture was added to a 384-well small volume black plate. Reactions were initiated by the addition of 5 µL ATP in reaction buffer, the final reaction mixture consisted of 500 nM peptide substrate, 1 mM ATP, and appropriate amount of specific kinase. […] The plates were then sealed and centrifuged at 1800 rpm for 2 minutes. […] Half maximal inhibitory concentration (IC50) determination was performed by fitting the curve of percent control activity versus the log of the compound concentration using the GraphPad Prism 6.0 software.

[2] = tested on: xenografted tumor models; assay: Combination with cisplatin in xenografted tumor models; assay type: in vivo; conditions: combination of INCB054828 with cisplatin
[3] = tested on: J82; assay: Cell viability assay (CellTiter-Glo); assay type: cell-based; conditions: Homo sapiens, Bladder, lacking FGFR alterations
[4] = tested on: RT-112 (bladder cancer); assay: Cell viability assay (CellTiter-Glo); assay type: cell-based; conditions: Homo sapiens, FGFR3-TACC3 fusion, 72 hours, read-out: Mean GI50 ± S.D.
[5] = target: EPHA2 (Homo sapiens, UniProt P29317); assay: Enzyme selectivity panel; assay type: biochemical; conditions: 1 mM ATP
Chain of EPHA2 (P29317 24-976, species assumed): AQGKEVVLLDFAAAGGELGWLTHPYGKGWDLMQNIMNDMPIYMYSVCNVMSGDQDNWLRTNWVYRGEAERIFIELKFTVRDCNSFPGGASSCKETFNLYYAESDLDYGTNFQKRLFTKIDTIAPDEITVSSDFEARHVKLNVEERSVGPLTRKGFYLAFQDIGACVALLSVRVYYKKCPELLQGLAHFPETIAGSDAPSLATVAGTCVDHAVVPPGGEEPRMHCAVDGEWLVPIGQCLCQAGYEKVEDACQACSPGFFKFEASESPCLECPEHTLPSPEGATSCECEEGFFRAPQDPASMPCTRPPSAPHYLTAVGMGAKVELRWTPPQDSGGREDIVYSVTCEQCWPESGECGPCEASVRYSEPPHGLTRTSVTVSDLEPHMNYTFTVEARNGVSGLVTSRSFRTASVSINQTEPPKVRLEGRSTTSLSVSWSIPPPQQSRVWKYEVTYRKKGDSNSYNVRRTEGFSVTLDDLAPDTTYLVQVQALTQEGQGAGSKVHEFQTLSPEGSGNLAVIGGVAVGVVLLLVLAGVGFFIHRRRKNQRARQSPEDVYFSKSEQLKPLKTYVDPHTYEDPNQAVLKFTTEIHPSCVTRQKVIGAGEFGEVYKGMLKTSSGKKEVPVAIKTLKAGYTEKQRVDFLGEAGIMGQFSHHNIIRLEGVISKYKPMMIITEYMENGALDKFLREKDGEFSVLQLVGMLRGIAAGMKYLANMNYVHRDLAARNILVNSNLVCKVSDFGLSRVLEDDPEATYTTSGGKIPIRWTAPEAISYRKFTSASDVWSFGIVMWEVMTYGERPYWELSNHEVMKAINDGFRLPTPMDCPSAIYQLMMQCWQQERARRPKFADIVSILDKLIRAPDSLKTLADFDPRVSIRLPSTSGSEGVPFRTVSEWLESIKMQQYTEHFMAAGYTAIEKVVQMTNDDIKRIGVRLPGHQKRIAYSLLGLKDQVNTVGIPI
Protocol: as §1

[6] = tested on: KATO III (gastric cancer); assay: Cell viability assay (CellTiter-Glo); assay type: cell-based; conditions: Homo sapiens, FGFR2 amplification, 72 hours, read-out: Mean GI50 ± S.D.
[7] = Preclinical safety studies; assay type: in vivo
[8] = target: DYRK2 (Homo sapiens, UniProt Q92630); assay: Enzyme selectivity panel; assay type: biochemical; conditions: 1 mM ATP
Chain of DYRK2 (Q92630 whole entry, species assumed): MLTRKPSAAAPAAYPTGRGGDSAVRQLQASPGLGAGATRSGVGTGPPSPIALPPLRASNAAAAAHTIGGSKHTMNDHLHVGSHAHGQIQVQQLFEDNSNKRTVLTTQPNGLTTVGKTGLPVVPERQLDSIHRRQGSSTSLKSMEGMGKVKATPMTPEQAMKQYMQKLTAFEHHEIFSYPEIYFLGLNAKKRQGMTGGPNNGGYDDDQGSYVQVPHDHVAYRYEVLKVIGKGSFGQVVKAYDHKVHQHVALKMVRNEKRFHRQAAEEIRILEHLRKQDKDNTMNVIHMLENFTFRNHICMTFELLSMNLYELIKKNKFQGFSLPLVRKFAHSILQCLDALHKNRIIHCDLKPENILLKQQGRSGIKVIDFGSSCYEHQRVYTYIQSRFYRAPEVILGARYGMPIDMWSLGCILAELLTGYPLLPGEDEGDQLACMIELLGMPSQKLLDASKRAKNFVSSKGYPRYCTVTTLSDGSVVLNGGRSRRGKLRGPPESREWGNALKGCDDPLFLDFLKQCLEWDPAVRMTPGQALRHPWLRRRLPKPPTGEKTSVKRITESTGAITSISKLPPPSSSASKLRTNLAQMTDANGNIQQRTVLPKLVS
Protocol: as §1

[9] = target: LRRK2 (Homo sapiens, UniProt Q5S007); assay: Enzyme selectivity panel; assay type: biochemical; conditions: 1 mM ATP
Protocol: as §1

[10] = target: MAPKAPK2 (Homo sapiens, UniProt P49137); assay: Enzyme selectivity panel; assay type: biochemical; conditions: 1 mM ATP
Chain of MAPKAPK2 (P49137 whole entry, species assumed): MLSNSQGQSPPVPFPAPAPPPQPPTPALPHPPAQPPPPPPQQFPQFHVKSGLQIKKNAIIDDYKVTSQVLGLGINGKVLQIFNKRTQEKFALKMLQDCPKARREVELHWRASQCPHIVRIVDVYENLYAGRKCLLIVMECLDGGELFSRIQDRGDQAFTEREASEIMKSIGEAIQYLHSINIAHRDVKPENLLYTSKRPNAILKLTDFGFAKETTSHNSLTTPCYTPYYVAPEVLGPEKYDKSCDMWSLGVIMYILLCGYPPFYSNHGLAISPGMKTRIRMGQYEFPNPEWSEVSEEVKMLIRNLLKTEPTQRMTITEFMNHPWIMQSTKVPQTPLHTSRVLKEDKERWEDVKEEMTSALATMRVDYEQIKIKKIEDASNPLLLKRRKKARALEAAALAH
Protocol: as §1

[11] = target: IGF1R (Homo sapiens, UniProt P08069); assay: Enzyme selectivity panel; assay type: biochemical; conditions: 1 mM ATP
Protocol: as §1

[12] = tested on: serum inorganic phosphate; assay: Serum phosphate pharmacodynamic study; assay type: in vivo, C57BL/6 mice; conditions: single oral dose
Protocol: Female C57BL/6 mice, 5–8 weeks of age, were obtained from Charles River Laboratories. […] Twenty-four hours after dosing, mice were anesthetized under isoflurane. Approximately 200 μL of whole blood was collected by capillary retro-orbital sinus sampling into lithium heparin collection tubes (RAM Scientific, Yonkers, NY). Blood was maintained at 4°C and transported for analysis to DuPont Haskell Global Centers for Health and Environmental Science (Newark, DE). Each sample was analyzed for levels of inorganic phosphate within 4 hours of receipt. Serum clinical chemistry parameters were determined using an Olympus® AU640 clinical chemistry analyzer (Beckman Coulter, Brea, CA). Both phosphate and calcium are manufacturer-supplied reagents and methods.

[13] = target: EGFR (Homo sapiens, UniProt P00533); assay: Enzyme selectivity panel; assay type: biochemical; conditions: 1 mM ATP
Protocol: as §1

[14] = tested on: RT-112 (FGFR3-TACC3 fusion positive) bladder carcinoma model; assay: RT-112 xenograft efficacy; assay type: in vivo, Rowett Nude rats; conditions: oral, 14 days
Protocol: The inoculation of 0.5 mL was performed subcutaneously on the flank. The treatment of tumor bearing rats was started 8 days after tumor inoculation.

[15] = tested on: H1581 (lung cancer); assay: Cell viability assay (CellTiter-Glo); assay type: cell-based; conditions: Homo sapiens, NCI-H1581; FGFR1 amplification; 72 hours; read-out: Mean GI50 ± S.D.
[16] = tested on: phospho-FRS2 and phospho-ERK in RT-4 cells (FGFR3-TACC3); assay: Western blot of FGFR pathway markers; assay type: cell-based; conditions: 2 hours
From the text: All antibodies were purchased from commercial sources as follows: antibodies against FGFR1 (monoclonal [rabbit], catalogue no. 9740, Antibody Registry Identifier AB_11178519), ERK (monoclonal [mouse], 9107, AB_10695739), phospho-p42/44 ERK1/2 (monoclonal [rabbit], 4370, AB_2315112), phospho-STAT5 (Tyr694; monoclonal [rabbit], 4322, AB_10544692), and STAT5 (monoclonal [rabbit], 9358, AB_659905) were from Cell Signaling Technologies (Danvers, MA) and used at 1:1000 dilution; FGFR3 (monoclonal [rabbit], AB133644, AB_2810262) and FRS2 (polyclonal [rabbit], AB10425, AB_2247176) were from Abcam (Cambridge, UK) and used at 1:2000; and phospho-FRS2 (Tyr436; polyclonal [rabbit], AF5126, AB_2106234) was from R&D Systems (Minneapolis, MN) and used at 1 μg/mL. The pFGFR2 enzyme-linked immunosorbent assay (ELISA) kit was purchased from R&D Systems and ELISA was performed per manufacturer protocol.
Original Western blot images are shown in S1 File (S1 Raw images).

[17] = target: ERBB4 (Homo sapiens, UniProt Q15303); assay: Enzyme selectivity panel; assay type: biochemical; conditions: 1 mM ATP
Chain of ERBB4 (Q15303 26-1308, species assumed): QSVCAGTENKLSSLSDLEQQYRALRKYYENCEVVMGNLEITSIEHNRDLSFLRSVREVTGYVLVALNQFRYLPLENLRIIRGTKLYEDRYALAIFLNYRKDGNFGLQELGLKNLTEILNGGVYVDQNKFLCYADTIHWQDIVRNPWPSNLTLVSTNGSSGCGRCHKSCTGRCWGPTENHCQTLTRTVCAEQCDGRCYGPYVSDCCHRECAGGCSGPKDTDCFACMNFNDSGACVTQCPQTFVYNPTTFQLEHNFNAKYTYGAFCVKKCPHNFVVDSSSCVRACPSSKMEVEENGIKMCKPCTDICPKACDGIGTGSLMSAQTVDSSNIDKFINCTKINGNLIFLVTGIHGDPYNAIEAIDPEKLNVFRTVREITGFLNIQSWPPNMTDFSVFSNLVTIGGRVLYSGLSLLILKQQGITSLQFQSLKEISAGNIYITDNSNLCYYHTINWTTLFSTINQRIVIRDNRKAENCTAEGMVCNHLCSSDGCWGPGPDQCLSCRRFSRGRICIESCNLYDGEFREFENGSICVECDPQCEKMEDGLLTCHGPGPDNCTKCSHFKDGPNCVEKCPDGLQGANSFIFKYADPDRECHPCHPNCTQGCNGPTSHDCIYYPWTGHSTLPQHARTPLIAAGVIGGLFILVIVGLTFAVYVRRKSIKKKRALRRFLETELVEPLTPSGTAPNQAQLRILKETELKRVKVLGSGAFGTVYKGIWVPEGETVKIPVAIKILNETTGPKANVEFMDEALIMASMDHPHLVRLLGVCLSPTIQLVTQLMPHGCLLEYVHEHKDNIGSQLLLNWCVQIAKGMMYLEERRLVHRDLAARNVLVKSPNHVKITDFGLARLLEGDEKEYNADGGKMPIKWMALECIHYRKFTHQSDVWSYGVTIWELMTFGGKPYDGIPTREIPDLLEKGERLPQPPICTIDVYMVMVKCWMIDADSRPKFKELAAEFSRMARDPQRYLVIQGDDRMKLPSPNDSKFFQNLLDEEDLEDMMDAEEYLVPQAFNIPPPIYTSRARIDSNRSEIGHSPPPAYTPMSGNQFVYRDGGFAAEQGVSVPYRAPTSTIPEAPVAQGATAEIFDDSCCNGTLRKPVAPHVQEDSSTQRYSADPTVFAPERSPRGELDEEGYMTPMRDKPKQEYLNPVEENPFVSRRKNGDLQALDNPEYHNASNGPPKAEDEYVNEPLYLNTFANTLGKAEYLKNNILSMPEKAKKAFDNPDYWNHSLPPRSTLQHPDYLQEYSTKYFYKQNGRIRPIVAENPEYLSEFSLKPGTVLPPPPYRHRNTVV
Protocol: as §1

[18] = tested on: phospho-FGFR3 in RT-112 cells; conditions: proximity ligation assay
[19] = target: CDK2 (Homo sapiens, UniProt P24941); assay: Enzyme selectivity panel; assay type: biochemical; conditions: 1 mM ATP
Protocol: as §1

[20] = tested on: KG1 (FGFROP2-FGFR1 fusion positive) AML model; assay: KG1 xenograft efficacy; conditions: 0.3 mg/kg once daily, oral, 14 days; P < 0.05
Protocol: The inoculation was performed subcutaneously on the right flank. The treatment of tumor bearing mice was started 7 days after tumor inoculation.

[21] = target: T1, SRC (Homo sapiens, UniProt P12931); assay: Enzyme selectivity panel; assay type: biochemical; conditions: 1 mM ATP
T1 construct: purchased In-house HTRF panel (56 kinases) and PerkinElmer (161-kinase panel)
Protocol: as §1

[22] = target: BTK (Homo sapiens, UniProt Q06187); assay: Enzyme selectivity panel; assay type: biochemical; conditions: 1 mM ATP
Chain of BTK (Q06187 whole entry, species assumed): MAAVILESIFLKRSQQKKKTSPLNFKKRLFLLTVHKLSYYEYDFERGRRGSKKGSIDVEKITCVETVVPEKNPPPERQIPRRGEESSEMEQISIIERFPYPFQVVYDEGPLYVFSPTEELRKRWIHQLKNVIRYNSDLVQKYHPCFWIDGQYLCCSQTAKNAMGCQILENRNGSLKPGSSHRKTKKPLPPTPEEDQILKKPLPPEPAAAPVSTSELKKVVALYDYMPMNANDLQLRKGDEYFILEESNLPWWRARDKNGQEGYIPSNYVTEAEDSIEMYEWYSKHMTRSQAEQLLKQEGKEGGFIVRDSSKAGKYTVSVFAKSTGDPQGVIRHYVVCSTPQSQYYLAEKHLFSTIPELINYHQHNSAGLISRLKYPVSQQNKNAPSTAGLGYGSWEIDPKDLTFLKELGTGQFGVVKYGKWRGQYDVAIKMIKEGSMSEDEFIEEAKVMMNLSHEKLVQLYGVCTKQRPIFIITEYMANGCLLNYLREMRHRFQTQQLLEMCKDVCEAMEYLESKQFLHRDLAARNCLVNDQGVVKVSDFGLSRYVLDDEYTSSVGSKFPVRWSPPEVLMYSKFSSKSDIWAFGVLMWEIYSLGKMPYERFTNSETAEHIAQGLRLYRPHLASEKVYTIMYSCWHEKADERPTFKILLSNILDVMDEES
Protocol: as §1

[23] = target: LOK (Homo sapiens, UniProt O94804); assay: Enzyme selectivity panel; assay type: biochemical; conditions: 1 mM ATP
Protocol: as §1

[24] = target: T2, SGK2 (Homo sapiens, UniProt Q9HBY8); assay: Enzyme selectivity panel; assay type: biochemical; conditions: 1 mM ATP
T2 construct: purchased In-house HTRF panel (56 kinases) and PerkinElmer (161-kinase panel)
T2 sequence (Q9HBY8 whole entry, species assumed): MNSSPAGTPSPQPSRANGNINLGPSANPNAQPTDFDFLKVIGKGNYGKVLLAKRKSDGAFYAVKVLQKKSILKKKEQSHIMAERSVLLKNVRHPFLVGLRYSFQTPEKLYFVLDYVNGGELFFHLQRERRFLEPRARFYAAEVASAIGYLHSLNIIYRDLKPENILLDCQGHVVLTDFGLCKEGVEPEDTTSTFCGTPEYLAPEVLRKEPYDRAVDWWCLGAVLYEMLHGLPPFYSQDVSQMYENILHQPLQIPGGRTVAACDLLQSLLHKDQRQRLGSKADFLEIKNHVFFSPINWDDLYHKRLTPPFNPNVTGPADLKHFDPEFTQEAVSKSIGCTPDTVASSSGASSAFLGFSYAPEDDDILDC
Protocol: as §1

Chain of CLK3 (P49761 whole entry, species assumed): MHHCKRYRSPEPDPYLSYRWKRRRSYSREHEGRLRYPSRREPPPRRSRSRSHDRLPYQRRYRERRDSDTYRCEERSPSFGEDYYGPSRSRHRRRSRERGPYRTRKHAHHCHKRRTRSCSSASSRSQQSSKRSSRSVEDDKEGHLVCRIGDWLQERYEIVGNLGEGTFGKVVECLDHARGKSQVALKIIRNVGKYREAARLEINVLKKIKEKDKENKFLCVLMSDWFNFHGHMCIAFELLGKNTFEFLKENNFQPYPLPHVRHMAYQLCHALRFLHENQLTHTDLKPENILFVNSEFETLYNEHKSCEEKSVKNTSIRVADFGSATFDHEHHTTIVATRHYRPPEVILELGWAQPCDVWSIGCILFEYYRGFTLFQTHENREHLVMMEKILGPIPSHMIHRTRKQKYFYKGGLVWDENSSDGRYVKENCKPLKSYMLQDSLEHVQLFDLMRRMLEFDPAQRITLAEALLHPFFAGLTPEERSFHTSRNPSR

With `CCN1C(=O)N(c2c(F)c(OC)cc(OC)c2F)Cc2cnc3[nH]c(CN4CCOCC4)cc3c21` [INCB054828, pemigatinib] the IC50 [1] was greater than 10 µM, the “benefit of combination with cisplatin over either single agent” value [2] was “significant benefit over either single agent” and the GI50 [3] was greater than 5 µM. The GI50 [4] was 0.007 ± 0.003 µM, the IC50 [5] was greater than 10 µM and the GI50 [6] was 0.003 ± 0.001 µM. For the same molecule, the “liver toxicity and changes in blood pressure” value [7] was “not observed”, the IC50 [8] was greater than 10 µM and the IC50 [9] was greater than 10 µM. The IC50 [10] was greater than 10 µM, the IC50 [11] was greater than 10 µM and the “average half maximal effective dose for phosphate induction” value ([12]; 2 independent experiments) was 2.9 mg/kg. For the same molecule, the serum phosphorus ([12]; 24 hours after dosing) was “dose-dependent increase”, the IC50 [13] was greater than 10 µM and the tumor growth inhibition ([14]; 0.3 mg/kg once daily) was “significant tumor growth inhibition”. For the same molecule, the tumor growth inhibition ([14]; 1 mg/kg once daily) was “significant tumor growth inhibition”, the GI50 [15] was 0.014 ± 0.009 µM and the “levels of phospho-FRS2 and phospho-ERK” value [16] was “strongly suppresses”. The IC50 [17] was greater than 10 µM, the “potent inhibition of FGFR3 (phospho-FGFR3), concentration” value [18] was less than 10 nM and the IC50 [19] was greater than 10 µM. For the same molecule, the “efficacy against subcutaneous xenograft” value [20] was “significant efficacy”, the IC50 [21] was greater than 10 µM and the IC50 [22] was greater than 10 µM. It also gave an IC50 [23] greater than 10 µM and an IC50 [24] greater than 10 µM.
